# Measured values published in patent publication US20070292384A1, “Water soluble micelle-forming and biodegradable cyclotriphosphazene-taxol conjugate anticancer agent and preparation method thereof” (priority 2006, published 2007).
# Read-outs that look alike come from different tables or passages of the source.
# Legend:
# [1] = Blood metabolism study in rats (HPLC of blood samples); type: in vivo, male Sprague-Dawley rats; settings: rat
# Experimental: To a group consisting of 4 male Sprague-Dawley rats (270-300 g) was administered the compound of Example 2 dissolved in a PBS solution at a concentration of 6.67 mg/ml by intravenous infusion with a dosage of 5 mg/kg for 3 minutes. After the drug administration, blood (100 μl) samples were taken from each rat for 48 hours at 0, 0.08, 0.5, 1, 2, 3, 4, 6, 8, 12, 24, 36 and 48 hours post injection, and the samples were analyzed with HPLC, and the results are presented in Table 2 below.
# [2] = test system: MCF-7 breast cancer cell line; assay: In vitro cytotoxicity, MCF-7; type: cell-based; settings: average ± SD, n = 3-4
# Experimental: (§1) In order to evaluate the anticancer activity of the cyclotriphosphazene-taxol conjugates of the present invention, in vitro cytotoxicity of the representative compound of Example 1 was assayed both in saline and in pure water according to a standard testing procedure (Y. J. Jun, et al., J. Inorg. Biochem. (2005) 99:1593-1601), and the test results are shown in Table 1 below.
# [3] = test system: SK-OV3 ovarian cancer cell line; assay: In vitro cytotoxicity, SK-OV3; type: cell-based; settings: average ± SD, n = 3-4
# Experimental: as §1
# [4] = test system: A-431; assay: In vitro cytotoxicity, A-431; type: cell-based; settings: average ± SD, n = 3-4
# Experimental: as §1
# [5] = test system: MDA-MB-231 breast cancer cell line; assay: In vitro cytotoxicity, MDA-MB-231; type: cell-based; settings: average ± SD, n = 3-4
# Experimental: as §1
# [6] = DLS measurement of micelle formation and micelle size; type: physicochemical; settings: 0.1 to 0.5% in distilled water, Malvern Zetasizer (Nano-ZS)
# Experimental: It was determined by a DLS (dynamic light scattering) method whether the cyclotriphosphazene-taxol conjugates prepared according to the present invention are aggregated in aqueous solution through interaction of the hydrophobic oligopeptide groups, so as to form micelles, according to the following procedure: A size distribution of an aqueous solution, in which 0.1 to 0.5% of the cyclotriphosphazene-taxol conjugate prepared in Example 1 was dissolved in distilled water, was measured by a DLS method using Malvern Zetasizer (Nano-ZS).
# [7] = intravenous infusion 5 mg/kg for 3 minutes, average
compound,measurement,setting,value
[tris(methoxy-polyethyleneglycol550)][tris(glycyllysinemethylester)-mono-2′-succinyltaxol]cyclotriphosphazene [Example 2],AUCINF (measurement),[1]; [7],2.55
same,AUClast/AUCINF,[1]; [7],77.1%
same,C0,[1]; [7],1530 ng/mL
same,Cl_obs,[1]; [7],513.3 mL/h
same,Lambda z,[1]; [7],0.133 h⁻¹
same,Vz_obs,[1]; [7],4468.9 mL
same,t½_Lambda z,[1]; [7],6.29 h
same,AUClast,"[1]; intravenous infusion 5 mg/kg for 3 minutes, average, sampling to 48 hours",1970 ng·h/mL
same,in vivo half life relative to free taxol,"[1]; intravenous, compared with free taxol not formulated",twice longer
"CC(=O)O[C@H]1C(=O)[C@@]2(C)[C@H]([C@H](OC(=O)c3ccccc3)[C@]3(O)C[C@H](OC(=O)[C@H](O)[C@@H](NC(=O)c4ccccc4)c4ccccc4)C(C)=C1C3(C)C)[C@]1(OC(C)=O)CO[C@@H]1C[C@@H]2O [Taxol (free), Taxol]",IC50,"[2]; Homo sapiens, MCF7, free taxol",39 ± 4.9 nM
same,IC50,"[3]; Homo sapiens, SK-OV-3, free taxol",65.8 ± 0.5 nM
same,IC50,"[4]; Homo sapiens, A-431, free taxol",25.1 ± 8.9 nM
same,IC50,"[5]; Homo sapiens, MDA-MB-231, free taxol",47.1 ± 12.2 nM
same,AUC(0-t),"[1]; male, Sprague-Dawley, blood, intravenous infusion 5 mg/kg for 3 minutes, average, sampling to 48 hours",1970 ng·h/mL
same,AUC(0-inf),"[1]; male, Sprague-Dawley, blood, intravenous infusion 5 mg/kg for 3 minutes, average, read-out: AUCINF (measurement)",2290 ng·h/mL
same,C0,"[1]; male, Sprague-Dawley, blood, intravenous infusion 5 mg/kg for 3 minutes, average, read-out: C0",2700 ng/mL
same,AUClast/AUCINF,[1]; [7],85.9%
same,Cl_obs,[1]; [7],556.2 mL/h
same,Lambda z,[1]; [7],0.275 h⁻¹
same,Vz_obs,[1]; [7],2778.1 mL
same,t½_Lambda z,[1]; [7],3.54 h
[tris(methoxy-polyethyleneglycol350)][tris(glycyllysinemethylester)-mono-2′-succinyltaxol]cyclotriphosphazene [Example 1],IC50,[2]; in pure water,447 ± 138 nM
same,IC50,[2]; in saline solution,129 ± 37.5 nM
same,IC50,[3]; in pure water,503 ± 114 nM
same,IC50,[3]; in saline solution,138 ± 14.3 nM
same,IC50,[4]; in pure water,380 ± 89.2 nM
same,IC50,[4]; in saline solution,53.8 ± 13.9 nM
same,IC50,[5]; in pure water,327 ± 54.5 nM
same,IC50,[5]; in saline solution,108 ± 10.9 nM
same,micelle radius (DLS),[6],105 nm
